The text below walks through data of patent US20250296959A1, “B7-H3 TARGETING PEPTIDES AND CONSTRUCTS THEREOF” (Mariana Oncology Inc., priority 2024, published 2025).

For this test, the target named is T1, human 4lg B7-H3 (Homo sapiens, UniProt Q5ZPR3).
T1 sequence (Q5ZPR3 29-534): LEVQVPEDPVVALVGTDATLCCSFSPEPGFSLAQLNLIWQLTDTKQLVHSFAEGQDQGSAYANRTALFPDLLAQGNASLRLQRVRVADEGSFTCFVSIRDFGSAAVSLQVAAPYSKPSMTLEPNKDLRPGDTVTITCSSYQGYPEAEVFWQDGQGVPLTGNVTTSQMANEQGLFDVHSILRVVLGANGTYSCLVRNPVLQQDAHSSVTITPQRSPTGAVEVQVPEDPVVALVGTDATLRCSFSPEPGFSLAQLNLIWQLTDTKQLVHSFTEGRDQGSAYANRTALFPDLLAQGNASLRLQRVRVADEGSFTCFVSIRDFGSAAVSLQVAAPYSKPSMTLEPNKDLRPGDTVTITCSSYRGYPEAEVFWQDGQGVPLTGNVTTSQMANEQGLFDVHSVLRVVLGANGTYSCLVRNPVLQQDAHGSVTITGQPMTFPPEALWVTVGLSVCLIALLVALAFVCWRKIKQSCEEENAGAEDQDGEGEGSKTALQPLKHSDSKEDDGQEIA
Nature of the test: Affinity determination by surface plasmon resonance (SPR) to 4Ig B7-H3. Particulars: 4Ig B7-H3.

Setting [1] is: SPR KD—25° C., 25° C. flow cell temperature.
Setting [2] is: SPR KD—37° C., 37° C. flow cell temperature.

Usually Kd stands for the constant that tells how readily two partners part at equilibrium. Higher therefore signals weaker binding.

Starred links: 1 amine or outer side, 2 acyl side, 3 side chain; linkers in the order of their positions; H or OH if unused. Positions of bridges follow the written chain, without caps; N, C: chain ends. Non-standard residues stand in square brackets, D forms with d. Residues, ends and D or L forms follow the SMILES beside them. Groups on a side chain read outwards from the residue. *: point of attachment. X12 = O=C(O)CN1CCN(CC(=O)O)CCN([C@@H](CCC(=O)*)C(=O)O)CCN(CC(=O)O)CC1; Ala(piperidin-4-yl) = O=C([C@H](CC1CCN([*:3])CC1)N[*:1])[*:2]; DOTA = O=C(O)CN1CCN(CC(=O)O)CCN(CC(=O)*)CCN(CC(=O)O)CC1; Phe(4-COOH) = N[C@@H](Cc1ccc(C(=O)O)cc1)C(=O)O; Trp(5-F) = N[C@@H](Cc1c[nH]c2ccc(F)cc12)C(=O)O; γGlu = O=C(O)[C@H](CCC(=O)[*:2])N[*:1]; 1Nal = N[C@@H](Cc1cccc2ccccc12)C(=O)O; Ala(4-THP) = N[C@@H](CC1CCOCC1)C(=O)O; AEF = NCCOc1ccc(C[C@H](N)C(=O)O)cc1; Val(3-OH) = CC(C)(O)[C@H](N)C(=O)O; pGlu = O=C1CC[C@@H](C(=O)O)N1; Chg = N[C@H](C(=O)O)C1CCCCC1; PEG4 = NCCOCCOCCOCCOCCC(=O)O; Tle = CC(C)(C)[C@H](N)C(=O)O; hLeu = CC(C)CC[C@H](N)C(=O)O; NMeS = CN[C@@H](CO)C(=O)O; Nle = CCCC[C@H](N)C(=O)O; Orn = NCCC[C@H](N)C(=O)O Some results are limits rather than exact numbers.

For `CCCC[C@@H]1NC(=O)[C@H](C(C)C)NC(=O)[C@H](CC(=O)O)NC(=O)[C@H](Cc2ccc(C(=O)O)cc2)NC(=O)[C@H](CCCCNC(=O)CN2CCN(CC(=O)O)CCN(CC(=O)O)CCN(CC(=O)O)CC2)NC(=O)CNC(=O)[C@H](C(C)C)NC(=O)[C@@H](NC(=O)[C@H](Cc2ccc(O)cc2)NC(=O)[C@H](CCC(C)C)NC(C)=O)CSSC[C@@H](C(=O)N[C@@H](Cc2c[nH]c3ccc(F)cc23)C(=O)N[C@@H](Cc2ccccc2)C(=O)N2CCC[C@H]2C(N)=O)NC1=O` [compound 302, Ac-hLeu-Y-C-V-G-Lys(DOTA)-4COOHPhe-D-V-Nle-C-5FW-F-Pro-CONH2] (Ac-[hLeu]YCVGK(DOTA)[Phe(4-COOH)]DV[Nle]C[Trp(5-F)]FP-NH2; disulfide 3-11), under setting [1], the Kd lay within 100 to 300 nM.

Take `CC(=O)N[C@@H](CCC(C)C)C(=O)N[C@@H](Cc1ccc(O)cc1)C(=O)N[C@H]1CSSC[C@@H](C(=O)N[C@@H](Cc2c[nH]c3ccccc23)C(=O)N[C@@H](Cc2ccccc2)C(=O)N[C@H](C(N)=O)[C@@H](C)O)NC(=O)[C@H](Cc2ccc(O)cc2)NC(=O)[C@H](C(C)C)NC(=O)[C@H](CC(=O)O)NC(=O)[C@H](Cc2ccc(O)cc2)NC(=O)[C@H](CCCCNC(=O)CN2CCN(CC(=O)O)CCN(CC(=O)O)CCN(CC(=O)O)CC2)NC(=O)CNC(=O)[C@H](C(C)C)NC1=O` [compound 145, Ac-hLeu-Y-C-V-G-Lys(DOTA)-Y-D-V-Y-C-W-F-Thr-CONH2] (Ac-[hLeu]YCVGK(DOTA)YDVYCWFT-NH2; disulfide 3-11): the Kd under setting [1] lay in the range of 1 to 10 nM.

Consider `CC(C)CC[C@H](NC(=O)[C@@H]1CCC(=O)N1)C(=O)N[C@@H](Cc1ccc(O)cc1)C(=O)N[C@H]1CSSC[C@@H](C(=O)N[C@@H](Cc2c[nH]c3ccc(F)cc23)C(=O)N[C@@H](Cc2ccccc2)C(=O)N[C@H](C(=O)N[C@H](CCCCNC(=O)CN2CCN(CC(=O)O)CCN(CC(=O)O)CCN(CC(=O)O)CC2)C(=O)O)C(C)(C)O)NC(=O)[C@H](Cc2ccc(O)cc2)NC(=O)[C@H](C(C)C)NC(=O)[C@H](CC(=O)O)NC(=O)[C@H](CC2CCOCC2)NC(=O)[C@H](CC2CCNCC2)NC(=O)CNC(=O)[C@H](C(C)(C)C)NC1=O` [Cpd #477, Pyroglutamate-hLeu-Y-C-Tbg-G-PipAla-ThpA-D-V-Y-C-5FW-F-hydroxyVal-dLys(DOTA)-COOH] ([pGlu][hLeu]YC[Tle]G[Ala(piperidin-4-yl)][Ala(4-THP)]DVYC[Trp(5-F)]F[Val(3-OH)][dK](DOTA)-OH; disulfide 4-12), for which the Kd under setting [2] fell in the range of 1 to 10 nM.

Regarding `CC(=O)N[C@@H](CCC(C)C)C(=O)N[C@@H](Cc1ccc(O)cc1)C(=O)N[C@H]1CSSC[C@@H](C(=O)N[C@@H](Cc2c[nH]c3ccc(F)cc23)C(=O)N[C@@H](Cc2ccccc2)C(=O)N[C@H](C(N)=O)[C@@H](C)O)NC(=O)[C@H](Cc2ccc(O)cc2)NC(=O)[C@H](C(C)C)NC(=O)[C@H](CC(=O)O)NC(=O)[C@H](Cc2ccc(OCCNC(=O)CN3CCN(CC(=O)O)CCN(CC(=O)O)CCN(CC(=O)O)CC3)cc2)NC(=O)[C@H](CCCCN)NC(=O)CNC(=O)[C@H](C(C)C)NC1=O` [compound 295, Ac-hLeu-Y-C-V-G-K-AEF(DOTA)-D-V-Y-C-5FW-F-Thr-CONH2] (Ac-[hLeu]YCVGK[AEF](DOTA)DVYC[Trp(5-F)]FT-NH2; disulfide 3-11), the dissociation constant Kd under setting [1] is < 1 nM and the equilibrium dissociation constant (Kd) under setting [2] was < 1 nM.

Consider `CC(=O)N[C@@H](CCC(C)C)C(=O)N[C@H](C(=O)N[C@H]1CSSC[C@@H](C(=O)N[C@@H](Cc2c[nH]c3ccc(F)cc23)C(=O)N[C@@H](Cc2ccccc2)C(=O)N(C)[C@@H](CO)C(=O)N[C@H](CCCCNC(=O)CN2CCN(CC(=O)O)CCN(CC(=O)O)CCN(CC(=O)O)CC2)C(N)=O)NC(=O)[C@H](Cc2ccc(O)cc2)NC(=O)[C@H](C(C)C)NC(=O)[C@H](CC(=O)O)NC(=O)[C@H](Cc2ccc(O)cc2)NC(=O)[C@H](CC2CCNCC2)NC(=O)CNC(=O)[C@H](C(C)C)NC1=O)C1CCCCC1` [compound 212, Ac-hLeu-Chg-C-V-G-PipAla-Y-D-V-Y-C-5FW-F-NMeSer-dLys(DOTA)-CONH2] (Ac-[hLeu][Chg]CVG[Ala(piperidin-4-yl)]YDVYC[Trp(5-F)]F[NMeS][dK](DOTA)-NH2; disulfide 3-11), for which the Kd under setting [1] lay within 100 to 300 nM.

Take `COc1ccc(C[C@@H]2NC(=O)[C@H](C(C)C)NC(=O)[C@H](CC(=O)O)NC(=O)[C@H](Cc3ccc(O)cc3)NC(=O)[C@H](CCCCN)NC(=O)CNC(=O)[C@H](C(C)C)NC(=O)[C@@H](NC(=O)[C@H](Cc3ccc(O)cc3)NC(=O)[C@H](CCC(C)C)NC(C)=O)CSSC[C@@H](C(=O)N[C@@H](Cc3c[nH]c4ccc(F)cc34)C(=O)N[C@@H](Cc3ccccc3)C(=O)N[C@H](C(=O)N[C@H](CCCCNC(=O)CN3CCN(CC(=O)O)CCN(CC(=O)O)CCN(CC(=O)O)CC3)C(N)=O)[C@@H](C)O)NC2=O)cc1` [compound 171, Ac-hLeu-Y-C-V-G-K-Y-D-V-OMeTyr-C-5FW-F-Thr-dLys(DOTA)-CONH2] (Ac-[hLeu]YCVGKYDVY(Me)C[Trp(5-F)]FT[dK](DOTA)-NH2; disulfide 3-11): under setting [1], the Kd was < 1 nM.

On to `CC(=O)N[C@@H](CCC(C)C)C(=O)N[C@@H](Cc1ccc(O)cc1)C(=O)N[C@H]1CSSC[C@@H](C(=O)N[C@@H](Cc2c[nH]c3ccc(F)cc23)C(=O)N[C@@H](Cc2ccccc2)C(=O)N[C@H](C(=O)N[C@H](CCC(=O)O)C(N)=O)C(C)(C)O)NC(=O)[C@H](Cc2ccc(O)cc2)NC(=O)[C@H](C(C)C)NC(=O)[C@H](CC(=O)O)NC(=O)[C@H](CC2CCN(C(=O)CN3CCN(CC(=O)O)CCN(CC(=O)O)CCN(CC(=O)O)CC3)CC2)NC(=O)[C@H](CC2CCNCC2)NC(=O)CNC(=O)[C@H](C(C)(C)C)NC1=O` [compound 447, Ac-hLeu-Y-C-Tbg-G-PipAla-Pip(DOTA)Ala-D-V-Y-C-5FW-F-hydroxyVal-dGlu-CONH2] (Ac-[hLeu]YC[Tle]G[Ala(piperidin-4-yl)][Ala(piperidin-4-yl)](DOTA)DVYC[Trp(5-F)]F[Val(3-OH)][dE]-NH2; disulfide 3-11), for which the dissociation constant (Kd) under setting [2] is < 1 nM.

Regarding `CC(=O)N[C@@H](CCC(C)C)C(=O)N[C@@H](Cc1ccc(O)cc1)C(=O)N[C@H]1CSSC[C@@H](C(=O)N[C@@H](Cc2c[nH]c3ccc(F)cc23)C(=O)N[C@@H](Cc2ccccc2)C(=O)N[C@H](C(=O)N[C@H](CCCCNC(=O)CC[C@@H](C(=O)O)N2CCN(CC(=O)O)CCN(CC(=O)O)CCN(CC(=O)O)CC2)C(=O)O)C(C)(C)O)NC(=O)[C@H](Cc2ccc(O)cc2)NC(=O)[C@H](C(C)C)NC(=O)[C@H](CC(=O)O)NC(=O)[C@H](CC2CCOCC2)NC(=O)[C@H](CC2CCNCC2)NC(=O)CNC(=O)[C@H](C(C)(C)C)NC1=O` [compound 439, Ac-hLeu-Y-C-Tbg-G-PipAla-ThpA-D-V-Y-C-5FW-F-hydroxyVal-dLys(S-DOTAGA)-COOH] (Ac-[hLeu]YC[Tle]G[Ala(piperidin-4-yl)][Ala(4-THP)]DVYC[Trp(5-F)]F[Val(3-OH)][dK](X12)-OH; disulfide 3-11), the Kd under setting [2] is < 1 nM.

As for `CC(=O)N[C@@H](CCC(C)C)C(=O)N[C@@H](Cc1ccc(O)cc1)C(=O)N[C@H]1CSSC[C@@H](C(=O)N[C@@H](Cc2c[nH]c3ccccc23)C(=O)N[C@@H](Cc2ccccc2)C(=O)N[C@H](C(=O)N[C@H](CCCCNC(=O)CN2CCN(CC(=O)O)CCN(CC(=O)O)CCN(CC(=O)O)CC2)C(N)=O)[C@@H](C)O)NC(=O)[C@H](Cc2ccc(O)cc2)NC(=O)[C@H](C2CCCCC2)NC(=O)[C@H](CC(=O)O)NC(=O)[C@H](Cc2ccc(O)cc2)NC(=O)[C@H](CCCN)NC(=O)CNC(=O)[C@H](C(C)(C)C)NC1=O` [compound 138, Ac-hLeu-Y-C-Tbg-G-Orn-Y-D-Chg-Y-C-W-F-Thr-dLys(DOTA)-CONH2] (Ac-[hLeu]YC[Tle]G[Orn]YD[Chg]YCWFT[dK](DOTA)-NH2; disulfide 3-11), the Kd under setting [1] fell in the range of 1 to 10 nM.

As for `CC(=O)N[C@@H](CCC(C)C)C(=O)N[C@@H](Cc1ccc(O)cc1)C(=O)N[C@H]1CSSC[C@@H](C(=O)N[C@@H](Cc2cccc3ccccc23)C(=O)N[C@@H](Cc2ccccc2)C(=O)N2CCC[C@H]2C(=O)N[C@H](CCCCNC(=O)CC[C@H](NC(=O)CC[C@H](NC(=O)CN2CCN(CC(=O)O)CCN(CC(=O)O)CCN(CC(=O)O)CC2)C(=O)O)C(=O)O)C(N)=O)NC(=O)[C@H](Cc2ccc(O)cc2)NC(=O)[C@H](C(C)C)NC(=O)[C@H](CC(=O)O)NC(=O)[C@H](CC2CCOCC2)NC(=O)[C@H](CCCCN)NC(=O)CNC(=O)[C@H](C(C)(C)C)NC1=O` [compound 275, Ac-hLeu-Y-C-Tbg-G-K-ThpA-D-V-Y-C-1Nal-F-Pro-dLys(gE-gE-DOTA)-CONH2] (Ac-[hLeu]YC[Tle]GK[Ala(4-THP)]DVYC[1Nal]FP[dK]([γGlu-γGlu-DOTA])-NH2; disulfide 3-11), the Kd under setting [1] lay within 1 to 10 nM.

Turning to `CC(=O)N[C@@H](CCC(C)C)C(=O)N[C@@H](Cc1ccc(O)cc1)C(=O)N[C@H]1CSSC[C@@H](C(=O)N[C@@H](Cc2c[nH]c3ccc(F)cc23)C(=O)N[C@@H](Cc2ccccc2)C(=O)N[C@H](C(=O)N[C@H](CO)C(=O)O)C(C)(C)O)NC(=O)[C@H](Cc2ccc(O)cc2)NC(=O)[C@H](C(C)C)NC(=O)[C@H](CC(=O)O)NC(=O)[C@H](CC2CCN(C(=O)CCOCCOCCOCCOCCNC(=O)CN3CCN(CC(=O)O)CCN(CC(=O)O)CCN(CC(=O)O)CC3)CC2)NC(=O)[C@H](CC2CCOCC2)NC(=O)CNC(=O)[C@H](C(C)(C)C)NC1=O` [compound 484, Ac-hLeu-Y-C-Tbg-G-ThpA-Pip(PEG4-DOTA)Ala-D-V-Y-C-5FW-F-hydroxyVal-dSer-COOH] (Ac-[hLeu]YC[Tle]G[Ala(4-THP)][Ala(piperidin-4-yl)]([PEG4-DOTA])DVYC[Trp(5-F)]F[Val(3-OH)][dS]-OH; disulfide 3-11), the dissociation constant (Kd) under setting [2] is < 1 nM.
